In the supplement of paper PMC10307832:

Key:
Assay in all cases: relative viability (nuclei count vs DMSO), 5 days (fraction); higher = more cells survive
[1] = compound: CCC1=CN=CN=C1N2CCN(CC2)CC3=NC4=C(N3)C=C(C=C4)C(F)(F)F + CC1(C)CCC(c2ccc(Cl)cc2)=C(CN2CCN(c3ccc(C(=O)NS(=O)(=O)c4ccc(N[C@H](CCN5CCOCC5)CSc5ccccc5)c(S(=O)(=O)C(F)(F)F)c4)cc3)CC2)C1 [Navitoclax] (partner 0.5 µM)
Method in brief: (§1)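 Medians of duplicate plates are given as relative viability. That measure is the nuclei count in treated wells divided by the count in vehicle wells. Counts were taken on 4× images of lung cancer cell lines in 1536-well plates, 5 days after pin-tool dosing the day after seeding with one drug alone or a fixed anchor-drug dose plus five library-drug doses (not always all listed) in √10 steps.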

[2] = compound: CCC1=CN=CN=C1N2CCN(CC2)CC3=NC4=C(N3)C=C(C=C4)C(F)(F)F + Cc1nc(NC(=O)N2CCC[C@H]2C(N)=O)sc1-c1ccnc(C(C)(C)C(F)(F)F)c1 [Alpelisib] (partner 2 µM)
Method in brief: as §1

[3] = compound: CCn1c(-c2nonc2N)nc2cnc(Oc3cccc(NC(=O)c4ccc(OCCN5CCOCC5)cc4)c3)cc21 + O=C(c1cc(Cc2n[nH]c(=O)c3ccccc23)ccc1F)N1CCN(C(=O)C2CC2)CC1 [Olaparib] (partner 8 µM)
Method in brief: as §1

Mirin + OSI-027 = compound: N=C1NC(=O)/C(=C/c2ccc(O)cc2)S1 [Mirin] + COc1cccc2cc(-c3nc([C@H]4CC[C@H](C(=O)O)CC4)n4ncnc(N)c34)[nH]c12 [OSI-027] (partner 0.5 µM)
Method in brief: as §1

Cell Line: UMC-11
- relative viability ([1]; first compound 0.04 µM): 0.319
- relative viability ([1]; first compound 0.1265 µM): 0.304
- relative viability ([1]; first compound 0.4 µM): 0.312
- relative viability ([1]; first compound 1.265 µM): 0.284
- relative viability ([1]; first compound 4 µM): 0.305
- relative viability ([2]; first compound 0.04 µM): 0.973
- relative viability ([2]; first compound 0.1265 µM): 1.07
- relative viability ([2]; first compound 0.4 µM): 0.959
- relative viability ([2]; first compound 1.265 µM): 0.906
- relative viability ([2]; first compound 4 µM): 0.871
- relative viability ([3]; first compound 0.04 µM): 0.38
- relative viability ([3]; first compound 0.1265 µM): 0.303
- relative viability ([3]; first compound 0.4 µM): 0.32
- relative viability ([3]; first compound 1.265 µM): 0.088
- relative viability ([3]; first compound 4 µM): 0.185
- relative viability (Mirin + OSI-027; first compound 0.25 µM): 0.477
- relative viability (Mirin + OSI-027; first compound 0.7906 µM): 0.483
- relative viability (Mirin + OSI-027; first compound 2.5 µM): 0.461
- relative viability (Mirin + OSI-027; first compound 7.906 µM): 0.396
- relative viability (Mirin + OSI-027; first compound 25 µM): 0.293
